The test system of this experiment is Ca^2+ channel. In words: MEMRI signal modulated by Ca2+ channel activity in single cell culture. It counts as cell-based, human. The note with it: cells labelled with Mn^2+; Ca^2+ channel antagonist or agonist.

On to (s)-Bay K8644, for which the MEMRI signal result is given as “increased”.
